pIC50: −log10 of the molar value.
System: not listed separately
Experiment: Compound was tested for cytotoxicity against paclitaxel resistant KB-V1 cell line expressing P-glycoprotein
Details: Homo sapiens

| SMILES | pIC50 |
| --- | --- |
| CN[C@H](C(=O)N[C@H](C(=O)N(C)[C@H](C(=O)N1CCC[C@@H]1C(=O)O)C(C)C)C(C)(C)C)C(C)(C)c1ccccc1 | < 5.52 |
| CN[C@H](C(=O)N[C@H](C(=O)N(C)[C@H](/C=C(\C)C(C)=O)C(C)C)C(C)(C)C)C(C)(C)c1ccccc1 | 5.63 |
| CN[C@H](C(=O)N[C@H](C(=O)N(C)[C@H](/C=C(\C)C(=O)N1CCC[C@@H]1C(=O)OC)C(C)C)C(C)(C)C)C(C)(C)c1cccc(C)c1 | 6.56 |
| CN[C@H](C(=O)N[C@H](C(=O)N(C)[C@H](/C=C(\C)C(=O)N1CCCC[C@@H]1C(=O)O)C(C)C)C(C)(C)C)C(C)(C)c1ccccc1 | < 5.52 |
| CN[C@H](C(=O)N[C@H](C(=O)N(C)[C@H](/C=C(\C)C(=O)N1CC=C[C@@H]1C(=O)OC)C(C)C)C(C)(C)C)C(C)(C)c1ccccc1 | 6.57 |
| CN[C@H](C(=O)N[C@H](C(=O)N(C)[C@H](/C=C/C(=O)O)C(C)C)C(C)(C)C)C(C)(C)c1ccccc1 | < 5.52 |
| CN[C@H](C(=O)N[C@H](C(=O)N(C)[C@H](/C=C(\C)C=O)C(C)C)C(C)(C)C)C(C)(C)c1ccccc1 | 5.80 |
| CN[C@H](C(=O)N[C@H](C(=O)N(C)[C@H](/C=C(\C)C(O)c1nccs1)C(C)C)C(C)(C)C)C(C)(C)c1ccccc1 (some centres not stated) | 6.44 |
| CN[C@H](C(=O)N[C@H](C(=O)N(C)[C@H](/C=C(\C)C(=O)N1CC(O)C[C@@H]1C(=O)OC)C(C)C)C(C)(C)C)C(C)(C)c1ccccc1 (some centres not stated) | < 5.52 |
| CN[C@H](C(=O)N[C@H](C(=O)N(C)[C@H](/C=C(\C)C(O)c1ccccc1)C(C)C)C(C)(C)C)C(C)(C)c1ccccc1 (single isomer, unassigned) | 6.72 |
| CN[C@H](C(=O)N[C@H](C(=O)N(C)[C@H](/C=C(\C)C(=O)N1CCC[C@H]1C(=O)OC)C(C)C)C(C)(C)C)C(C)(C)c1ccccc1 | 5.96 |
| CN[C@H](C(=O)N[C@H](C(=O)N(C)[C@H](/C=C(C)/C=C(\C)C(=O)O)C(C)C)C(C)(C)C)C(C)(C)c1ccccc1 | 5.80 |
| CN[C@H](C(=O)N[C@H](C(=O)N(C)[C@H](/C=C(\C)C(=O)N1CCC[C@@H]1C(=O)O)C(C)C)C(C)(C)C)C(C)(C)c1ccccc1 | < 5.52 |
| CN[C@H](C(=O)N[C@H](C(=O)N(C)[C@H](/C=C(\C)C(=O)CO)C(C)C)C(C)(C)C)C(C)(C)c1ccccc1 | 5.95 |
| CN[C@H](C(=O)N[C@H](C(=O)N(C)[C@H](/C=C1\NC(=O)NC1=O)C(C)C)C(C)(C)C)C(C)(C)c1ccccc1 | < 5.52 |
| CN[C@H](C(=O)N[C@H](C(=O)N(C)[C@H](/C=C(\C)C(=O)c1ncc[nH]1)C(C)C)C(C)(C)C)C(C)(C)c1ccccc1 | < 5.52 |
| CN[C@H](C(=O)N[C@H](C(=O)N(C)[C@H](/C=C(\C)C(=O)N1CCC[C@@H]1C(=O)NCCc1ccccc1)C(C)C)C(C)(C)C)C(C)(C)c1ccccc1 | 5.78 |
| CN[C@H](C(=O)N[C@H](C(=O)N(C)[C@H](/C=C(\C)C(=O)c1ccccc1)C(C)C)C(C)(C)C)C(C)(C)c1ccccc1 | 5.74 |
| CN[C@H](C(=O)N[C@H](C(=O)N(C)[C@H](/C=C/c1nn[nH]n1)C(C)C)C(C)(C)C)C(C)(C)c1ccccc1 | < 5.52 |

System: KB
Experiment: Compound was tested for cytotoxicity against paclitaxel resistant KB-8-5 cell line expressing P-glycoprotein
Assay type: functional, cell-based
Details: Homo sapiens

| SMILES | pIC50 |
| --- | --- |
| CN[C@H](C(=O)N[C@H](C(=O)N(C)[C@H](C(=O)N1CCC[C@@H]1C(=O)O)C(C)C)C(C)(C)C)C(C)(C)c1ccccc1 | < 5.52 |
| CN[C@H](C(=O)N[C@H](C(=O)N(C)[C@H](/C=C(\C)C(C)=O)C(C)C)C(C)(C)C)C(C)(C)c1ccccc1 | 6.18 |
| CN[C@H](C(=O)N[C@H](C(=O)N(C)[C@H](/C=C(\C)C(=O)N1CCC[C@@H]1C(=O)OC)C(C)C)C(C)(C)C)C(C)(C)c1cccc(C)c1 | 8.21 |
| CN[C@H](C(=O)N[C@H](C(=O)N(C)[C@H](/C=C(\C)C(=O)N1CCCC[C@@H]1C(=O)O)C(C)C)C(C)(C)C)C(C)(C)c1ccccc1 | 6.57 |
| CN[C@H](C(=O)N[C@H](C(=O)N(C)[C@H](/C=C(\C)C(=O)N1CC=C[C@@H]1C(=O)OC)C(C)C)C(C)(C)C)C(C)(C)c1ccccc1 | 7.77 |
| CN[C@H](C(=O)N[C@H](C(=O)N(C)[C@H](/C=C/C(=O)O)C(C)C)C(C)(C)C)C(C)(C)c1ccccc1 | 6.32 |
| CN[C@H](C(=O)N[C@H](C(=O)N(C)[C@H](/C=C(\C)C=O)C(C)C)C(C)(C)C)C(C)(C)c1ccccc1 | 6.35 |
| CN[C@H](C(=O)N[C@H](C(=O)N(C)[C@H](/C=C(\C)C(O)c1nccs1)C(C)C)C(C)(C)C)C(C)(C)c1ccccc1 (some centres not stated) | 7.72 |
| CN[C@H](C(=O)N[C@H](C(=O)N(C)[C@H](/C=C(\C)C(=O)N1CC(O)C[C@@H]1C(=O)OC)C(C)C)C(C)(C)C)C(C)(C)c1ccccc1 (some centres not stated) | 6.94 |
| CN[C@H](C(=O)N[C@H](C(=O)N(C)[C@H](/C=C(\C)C(O)c1ccccc1)C(C)C)C(C)(C)C)C(C)(C)c1ccccc1 (single isomer, unassigned) | 7.66 |
| CN[C@H](C(=O)N[C@H](C(=O)N(C)[C@H](/C=C(\C)C(=O)N1CCC[C@H]1C(=O)OC)C(C)C)C(C)(C)C)C(C)(C)c1ccccc1 | 7.29 |
| CN[C@H](C(=O)N[C@H](C(=O)N(C)[C@H](/C=C(C)/C=C(\C)C(=O)O)C(C)C)C(C)(C)C)C(C)(C)c1ccccc1 | 7.28 |
| CN[C@H](C(=O)N[C@H](C(=O)N(C)[C@H](/C=C(\C)C(=O)N1CCC[C@@H]1C(=O)O)C(C)C)C(C)(C)C)C(C)(C)c1ccccc1 | 6.69 |
| CN[C@H](C(=O)N[C@H](C(=O)N(C)[C@H](/C=C(\C)C(=O)CO)C(C)C)C(C)(C)C)C(C)(C)c1ccccc1 | 7.17 |
| CN[C@H](C(=O)N[C@H](C(=O)N(C)[C@H](/C=C1\NC(=O)NC1=O)C(C)C)C(C)(C)C)C(C)(C)c1ccccc1 | 5.76 |
| CN[C@H](C(=O)N[C@H](C(=O)N(C)[C@H](/C=C(\C)C(=O)c1ncc[nH]1)C(C)C)C(C)(C)C)C(C)(C)c1ccccc1 | 5.87 |
| CN[C@H](C(=O)N[C@H](C(=O)N(C)[C@H](/C=C(\C)C(=O)N1CCC[C@@H]1C(=O)NCCc1ccccc1)C(C)C)C(C)(C)C)C(C)(C)c1ccccc1 | 7.68 |
| CN[C@H](C(=O)N[C@H](C(=O)N(C)[C@H](/C=C(\C)C(=O)c1ccccc1)C(C)C)C(C)(C)C)C(C)(C)c1ccccc1 | 5.88 |
| CN[C@H](C(=O)N[C@H](C(=O)N(C)[C@H](/C=C/c1nn[nH]n1)C(C)C)C(C)(C)C)C(C)(C)c1ccccc1 | 5.74 |

System: KB 3-1
Experiment: Compound was tested for cytotoxicity against paclitaxel sensitive KB-3-1 cell line
Assay type: functional, cell-based
Details: Homo sapiens

| SMILES | pIC50 |
| --- | --- |
| CN[C@H](C(=O)N[C@H](C(=O)N(C)[C@H](C(=O)N1CCC[C@@H]1C(=O)O)C(C)C)C(C)(C)C)C(C)(C)c1ccccc1 | < 5.52 |
| CN[C@H](C(=O)N[C@H](C(=O)N(C)[C@H](/C=C(\C)C(C)=O)C(C)C)C(C)(C)C)C(C)(C)c1ccccc1 | 6.39 |
| CN[C@H](C(=O)N[C@H](C(=O)N(C)[C@H](/C=C(\C)C(=O)N1CCC[C@@H]1C(=O)OC)C(C)C)C(C)(C)C)C(C)(C)c1cccc(C)c1 | 8.80 |
| CN[C@H](C(=O)N[C@H](C(=O)N(C)[C@H](/C=C(\C)C(=O)N1CCCC[C@@H]1C(=O)O)C(C)C)C(C)(C)C)C(C)(C)c1ccccc1 | 7.19 |
| CN[C@H](C(=O)N[C@H](C(=O)N(C)[C@H](/C=C(\C)C(=O)N1CC=C[C@@H]1C(=O)OC)C(C)C)C(C)(C)C)C(C)(C)c1ccccc1 | 8.46 |
| CN[C@H](C(=O)N[C@H](C(=O)N(C)[C@H](/C=C/C(=O)O)C(C)C)C(C)(C)C)C(C)(C)c1ccccc1 | 6.72 |
| CN[C@H](C(=O)N[C@H](C(=O)N(C)[C@H](/C=C(\C)C=O)C(C)C)C(C)(C)C)C(C)(C)c1ccccc1 | 6.34 |
| CN[C@H](C(=O)N[C@H](C(=O)N(C)[C@H](/C=C(\C)C(O)c1nccs1)C(C)C)C(C)(C)C)C(C)(C)c1ccccc1 (some centres not stated) | 7.89 |
| CN[C@H](C(=O)N[C@H](C(=O)N(C)[C@H](/C=C(\C)C(=O)N1CC(O)C[C@@H]1C(=O)OC)C(C)C)C(C)(C)C)C(C)(C)c1ccccc1 (some centres not stated) | 8.46 |
| CN[C@H](C(=O)N[C@H](C(=O)N(C)[C@H](/C=C(\C)C(O)c1ccccc1)C(C)C)C(C)(C)C)C(C)(C)c1ccccc1 (single isomer, unassigned) | 7.80 |
| CN[C@H](C(=O)N[C@H](C(=O)N(C)[C@H](/C=C(\C)C(=O)N1CCC[C@H]1C(=O)OC)C(C)C)C(C)(C)C)C(C)(C)c1ccccc1 | 7.80 |
| CN[C@H](C(=O)N[C@H](C(=O)N(C)[C@H](/C=C(C)/C=C(\C)C(=O)O)C(C)C)C(C)(C)C)C(C)(C)c1ccccc1 | 7.57 |
| CN[C@H](C(=O)N[C@H](C(=O)N(C)[C@H](/C=C(\C)C(=O)N1CCC[C@@H]1C(=O)O)C(C)C)C(C)(C)C)C(C)(C)c1ccccc1 | 7.21 |
| CN[C@H](C(=O)N[C@H](C(=O)N(C)[C@H](/C=C(\C)C(=O)CO)C(C)C)C(C)(C)C)C(C)(C)c1ccccc1 | 7.37 |
| CN[C@H](C(=O)N[C@H](C(=O)N(C)[C@H](/C=C1\NC(=O)NC1=O)C(C)C)C(C)(C)C)C(C)(C)c1ccccc1 | 5.97 |
| CN[C@H](C(=O)N[C@H](C(=O)N(C)[C@H](/C=C(\C)C(=O)c1ncc[nH]1)C(C)C)C(C)(C)C)C(C)(C)c1ccccc1 | 6.66 |
| CN[C@H](C(=O)N[C@H](C(=O)N(C)[C@H](/C=C(\C)C(=O)N1CCC[C@@H]1C(=O)NCCc1ccccc1)C(C)C)C(C)(C)C)C(C)(C)c1ccccc1 | 8.19 |
| CN[C@H](C(=O)N[C@H](C(=O)N(C)[C@H](/C=C(\C)C(=O)c1ccccc1)C(C)C)C(C)(C)C)C(C)(C)c1ccccc1 | 6.14 |
| CN[C@H](C(=O)N[C@H](C(=O)N(C)[C@H](/C=C/c1nn[nH]n1)C(C)C)C(C)(C)C)C(C)(C)c1ccccc1 | 5.94 |

From ChEMBL document CHEMBL1137171, “D-piece modifications of the hemiasterlin analog HTI-286 produce potent tubulin inhibitors” (Bioorg Med Chem Lett, 2004)
